Eight molecules from PubChem BioAssay (NCI) can be followed below.

“And” between values parts separate entries of the source, which are not always exact repeats. Identical values can stand only once.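 Growth conditions: 96-well plates. Treatment: test compound, 48 hours, 5 concentrations. Analysis: linear interpolation between bracketing concentrations; unreached endpoints set to highest concentration. At the GI50, growth is halved. TGI: total growth inhibition.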 Where only a bound is given, the exact number is not on record here.

Some test systems named below: HCT-116 colon; OVCAR-5 ovarian; M14 melanoma; SNB-75 CNS; SF-268 CNS; ACHN renal; MDA-MB-435; NCI-H460 lung; TK-10 renal; CAKI-1 renal.
Common to all, as to experiment: NCI anticancer screen, dose series, 48 h

Consider `CCc1cccc(CC)c1NC(=S)NC(=O)c1ccc(Br)cc1`, for which the TGI is over 100 µM in the assay on HCT-116 colon; over 100 µM in the assay with OVCAR-5 ovarian; over 81.2 µM in the assay on M14 melanoma; over 96.6 µM with SNB-75 CNS; over 100 µM with SF-268 CNS; over 100 µM with ACHN renal. For the same molecule, the TGI in the assay on MDA-MB-435 was 83.5 µM; with NCI-H460 lung it was 41.6 µM; in the assay with TK-10 renal, over 64.1 µM; in the assay on CAKI-1 renal, over 96 µM.
Regarding `COc1cc2c3c(n(CCN)c(=O)c2cc1OC)-c1cc2c(cc1C3=O)OCO2`, the GI50 is 0.0521 µM in the assay with HCT-116 colon; 1.95 µM in the assay with OVCAR-5 ovarian; under 0.0185 µM in the assay with M14 melanoma; 0.143 µM with SNB-75 CNS; 0.749 µM in the assay on SF-268 CNS; 0.275 µM in the assay on ACHN renal. The GI50 with MDA-MB-435 is 1.04 µM; in the assay with NCI-H460 lung it was under 0.01 µM; in the assay on TK-10 renal it was 1.79 µM; in the assay on CAKI-1 renal it was under 0.0145 µM. Further, the TGI with OVCAR-5 ovarian is 3.74 µM; with M14 melanoma it was 1.41 µM; in the assay with SNB-75 CNS, 2.43 µM; in the assay on SF-268 CNS, 3.18 µM; with MDA-MB-435, 2.78 µM; with NCI-H460 lung, 3.24 µM. Moreover, the values for the TGI in the assay on TK-10 renal and in the assay with CAKI-1 renal were 3.63 µM and 0.786 µM, respectively.
Consider `O=C(Nc1cnn2ccc(N3CCC[C@@H]3c3cc(F)ccc3F)nc12)N1CC[C@H](O)C1`, for which the GI50 in the assay with HCT-116 colon, in the assay on OVCAR-5 ovarian, in the assay with M14 melanoma, with SNB-75 CNS, in the assay with SF-268 CNS and with ACHN renal was over 100 µM each time. The GI50 with MDA-MB-435, in the assay on NCI-H460 lung, with TK-10 renal and with CAKI-1 renal was over 100 µM throughout. Besides, the TGI with HCT-116 colon, with OVCAR-5 ovarian, in the assay with M14 melanoma, in the assay on SNB-75 CNS, in the assay with SF-268 CNS and in the assay on ACHN renal was over 100 µM throughout. Besides, the TGI with MDA-MB-435, in the assay on NCI-H460 lung, in the assay on TK-10 renal and with CAKI-1 renal was over 100 µM throughout.
On to `COc1ccc(-c2cnc(-c3ccc(F)cc3)[nH]2)cc1`, for which the GI50 was 1.36 µM in the assay with HCT-116 colon; 12.6 µM in the assay with OVCAR-5 ovarian; 5.99 µM with M14 melanoma; 4.26 µM in the assay on SNB-75 CNS; 2.62 µM in the assay on SF-268 CNS; 15.2 µM in the assay on ACHN renal. The GI50 with MDA-MB-435 is 1.96 µM; in the assay with NCI-H460 lung, 8.37 µM; in the assay on TK-10 renal, 2.58 µM; in the assay on CAKI-1 renal it was 1.82 µM. Also, the TGI in the assay with HCT-116 colon is 3.39 µM; in the assay with OVCAR-5 ovarian, 43.9 µM; with M14 melanoma it was 14.5 µM; in the assay with SNB-75 CNS it was 10.7 µM; in the assay with SF-268 CNS, 8 µM; with ACHN renal, 30.5 µM. Also, the TGI in the assay on MDA-MB-435 is 5.27 µM; with NCI-H460 lung, 29.6 µM; in the assay with TK-10 renal it was 8.81 µM; in the assay on CAKI-1 renal, 5.57 µM.
As for `CCOC(=O)/C=C1\SC(=Nc2ccc(C#N)cc2)N(CCN2C(=O)/C(=C/C(=O)OCC)SC2=Nc2ccc(C#N)cc2)C1=O`, the GI50 in the assay with HCT-116 colon was 0.441 µM; in the assay on OVCAR-5 ovarian, 6.75 µM; in the assay with M14 melanoma, 3.3 µM; with SNB-75 CNS, 5.02 µM; with SF-268 CNS, 1.94 µM; in the assay with ACHN renal, 4.62 µM. Besides, the GI50 in the assay on MDA-MB-435 is 3.21 µM; with NCI-H460 lung, 1.81 µM; with TK-10 renal it was 14.8 µM; in the assay on CAKI-1 renal it was 3.57 µM. The TGI is 2.38 µM in the assay with HCT-116 colon; 30.8 µM in the assay on OVCAR-5 ovarian; 18.2 µM with M14 melanoma; 36.1 µM with SNB-75 CNS; 16.1 µM in the assay on SF-268 CNS; 17.9 µM in the assay with ACHN renal. Besides, the TGI was found to be 16 µM with MDA-MB-435, 7.35 µM in the assay on NCI-H460 lung, 36.6 µM in the assay with TK-10 renal and 14.9 µM with CAKI-1 renal.
As to `Nc1ccc(C#Cc2cncnc2Nc2ccc(OCc3cccc(F)c3)c(Cl)c2)cc1`, the GI50 in the assay with HCT-116 colon is 10.6 µM; with OVCAR-5 ovarian, over 25 µM; in the assay with M14 melanoma, over 23.6 µM; in the assay on SNB-75 CNS, over 12.1 µM; with SF-268 CNS it was 16.5 µM; with ACHN renal, 6.87 µM. The GI50 is over 17.6 µM in the assay with MDA-MB-435, 15.7 µM in the assay with NCI-H460 lung, 3.58 µM in the assay with TK-10 renal and 5.87 µM in the assay on CAKI-1 renal. Moreover, the TGI was over 25 µM in the assay on HCT-116 colon; over 25 µM in the assay with OVCAR-5 ovarian; over 25 µM with M14 melanoma; 24.5 µM in the assay on SNB-75 CNS; over 25 µM in the assay with SF-268 CNS; over 25 µM in the assay on ACHN renal. Further, the TGI in the assay on MDA-MB-435, in the assay on NCI-H460 lung, in the assay with TK-10 renal and with CAKI-1 renal was over 25 µM throughout.
For the molecule `C#CCN1CCN(C(=S)N/N=C(\C)c2ccccn2)CC1`, the TGI with HCT-116 colon was 1.22 µM; in the assay with OVCAR-5 ovarian it was 4.65 µM and 3.11 µM; in the assay with M14 melanoma, 6.03 µM and 3.32 µM; in the assay on SNB-75 CNS, 6.35 µM and 12.7 µM; with SF-268 CNS it was 16.5 µM; with ACHN renal, 4.41 µM and 6.2 µM. The TGI in the assay with MDA-MB-435 was 3.39 µM and 4.03 µM; in the assay on NCI-H460 lung it was 4.17 µM and 2.75 µM; in the assay on TK-10 renal, 5.5 µM and 6.36 µM; in the assay with CAKI-1 renal it was 12.8 µM. Also, the GI50 is 0.14 µM in the assay with OVCAR-5 ovarian; 0.0781 µM in the assay on M14 melanoma; 0.0578 µM with ACHN renal; 1.58 µM in the assay with TK-10 renal; 0.785 µM in the assay on CAKI-1 renal.
`CS(=O)(=O)N1CCN(Cc2cc3nc(-c4cccc5[nH]ncc45)nc(N4CCOCC4)c3s2)CC1` (tested in a mixture with another compound): the GI50 is 0.149 µM with HCT-116 colon; 0.134 µM with OVCAR-5 ovarian; 0.277 µM with M14 melanoma; 0.021 µM in the assay on SNB-75 CNS; 0.152 µM in the assay with SF-268 CNS; 0.0638 µM in the assay with ACHN renal. Moreover, the GI50 in the assay on MDA-MB-435 was 0.0425 µM; with NCI-H460 lung, 0.0796 µM; with TK-10 renal, 0.129 µM; in the assay with CAKI-1 renal it was 0.0769 µM. In addition, the TGI worked out at 0.164 µM with SNB-75 CNS, 0.211 µM in the assay on MDA-MB-435 and 0.462 µM with CAKI-1 renal.
